Data on 16 compounds can be found in PubChem BioAssay AID248 (DTP/NCI, 2004).

The assay has as its system L1210 leukemia ip in BDF1 mice, survival T/C. The experiment in a line: NCI In Vivo Anticancer Drug Screen. Data for tumor model L1210 Leukemia (intraperitoneal) in B6D2F1 (BDF1) mice. The following applies: endpoint: mean survival time, higher = longer survival. The method, boiled down:
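Tumor was transplanted into mice, which were then dosed with test compound or vehicle alone. Survival was recorded for each group, and the treated figure was expressed relative to the control figure.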

Where [1] appears, read: dose: 100.0 mg/kg/injection, schedule: Q01DX009 (ip), vehicle: Klucel (hydroxypropylcellulose) (HPC).
The mark [2] stands for this setting: dose: 100.0 mg/kg/injection, schedule: Q04DX003 (ip), vehicle: Klucel (hydroxypropylcellulose) (HPC).
Setting [3] is: dose: 200.0 mg/kg/injection, schedule: Q01DX009 (ip), vehicle: Klucel (hydroxypropylcellulose) (HPC).
Where [4] appears, read: dose: 200.0 mg/kg/injection, schedule: Q04DX003 (ip), vehicle: Klucel (hydroxypropylcellulose) (HPC).
The mark [5] stands for this setting: dose: 400.0 mg/kg/injection, schedule: Q01DX009 (ip), vehicle: Klucel (hydroxypropylcellulose) (HPC).
Where [6] appears, read: dose: 400.0 mg/kg/injection, schedule: Q04DX003 (ip), vehicle: Klucel (hydroxypropylcellulose) (HPC).
Setting [7] is: dose: 100.0 mg/kg/injection, schedule: Q01DX009 (ip), vehicle: saline with Tween-80.
[8] abbreviates: dose: 200.0 mg/kg/injection, schedule: Q01DX009 (ip), vehicle: saline with Tween-80.
Where [9] appears, read: dose: 400.0 mg/kg/injection, schedule: Q01DX009 (ip), vehicle: saline with Tween-80.
[10] abbreviates: dose: 100.0 mg/kg/injection, schedule: Q04DX002 (ip), vehicle: saline with Tween-80.
Where [11] appears, read: dose: 200.0 mg/kg/injection, schedule: Q04DX002 (ip), vehicle: saline with Tween-80.
[12] abbreviates: dose: 400.0 mg/kg/injection, schedule: Q04DX002 (ip), vehicle: saline with Tween-80.
Setting [13] is: dose: 100.0 mg/kg/injection, schedule: Q01DX001 (ip), vehicle: Klucel (hydroxypropylcellulose) (HPC).
[14] abbreviates: dose: 200.0 mg/kg/injection, schedule: Q01DX001 (ip), vehicle: Klucel (hydroxypropylcellulose) (HPC).
Setting [15] is: dose: 100.0 mg/kg/injection, schedule: Q04DX003 (ip), vehicle: saline with Tween-80.
Where [16] appears, read: dose: 200.0 mg/kg/injection, schedule: Q04DX003 (ip), vehicle: saline with Tween-80.
[17] abbreviates: dose: 400.0 mg/kg/injection, schedule: Q04DX003 (ip), vehicle: saline with Tween-80.
Setting [18] is: dose: 400.0 mg/kg/injection, schedule: Q01DX001 (ip), vehicle: Klucel (hydroxypropylcellulose) (HPC).

Values joined by “and” are separate entries in the source; they are usually repeats but may differ in a detail not shown here. Equal entries are not always repeated. Toxic doses and inconclusive results are not listed.

Consider `COC(=O)c1cccc(C)c1C(=O)c1ccccc1`, for which the T/C under setting [1] was 104 % of control; the T/C under setting [2] is 101 % of control; the T/C under setting [3] is 96 % of control; the T/C under setting [4] was 101 % of control; the T/C under setting [5] is 98 % of control; the T/C under setting [6] was 95 % of control.

As to `CN1C(=O)NC2ON=C(c3ccccc3)C2C1=O` (stereo unspecified), the T/C runs as follows: under setting [1], 103 % of control; under setting [2], 100 % of control; under setting [3], 104 % of control; under setting [4], 103 % of control; under setting [5], 104 % of control; under setting [6], 100 % of control.

With `CC(C)C(=O)Nc1cccc(Cl)c1`, the T/C is 95 % of control under setting [7], 95 % of control under setting [8] and 101 % of control under setting [9].

For the compound `CCCN(CCC)CCCOC(=O)c1ccc(N)cc1`, the T/C by setting is: (dose: 25.0 mg/kg/injection, schedule: Q01DX009 (ip), vehicle: saline) 99 % of control; (dose: 44.0 mg/kg/injection, schedule: Q04DX003 (ip), vehicle: saline) 86 % of control; (dose: 50.0 mg/kg/injection, schedule: Q01DX009 (ip), vehicle: saline) 106 % of control; (dose: 50.0 mg/kg/injection, schedule: Q04DX003 (ip), vehicle: saline) 104 % of control; (dose: 66.0 mg/kg/injection, schedule: Q04DX003 (ip), vehicle: saline) 88 % of control; (dose: 67.0 mg/kg/injection, schedule: Q04DX003 (ip), vehicle: saline) 93 % of control. For the same compound, the T/C (dose: 100.0 mg/kg/injection, schedule: Q01DX009 (ip), vehicle: saline) is 89 % of control.

Turning to `Nc1nc(-c2ccccc2)[nH]c(=O)c1N=O`, the T/C was 98 % of control under setting [10], 87 % of control under setting [11] and 102 % of control under setting [12].

In the case of `CCOC(=O)c1[nH]c(=O)nc(N)c1Oc1ccccc1`, the T/C by setting is: (dose: 50.0 mg/kg/injection, schedule: Q01DX001 (ip), vehicle: Klucel (hydroxypropylcellulose) (HPC)) 98 % of control; under setting [13], 92 % of control; under setting [14], 93 % of control.

For the compound `O=C1c2ccccc2C(=O)c2c(Nc3ccccc3)ccc(O)c21`, the T/C is, setting by setting: under setting [2], 97 % of control; under setting [4], 98 % of control.

Consider `ClC(Cl)(Cl)c1ccc(C(SCc2ccccc2)SCc2ccccc2)cc1`, for which the T/C by setting is: under setting [15], 86 % of control; under setting [16], 89 % of control; under setting [17], 86 % of control.

Turning to `O=C(Nc1cccc(C(=O)Nc2ccc(C3=NCCN3)cc2)c1)c1ccc(C2=NCCN2)cc1`, the T/C by setting is: (dose: 15.0 mg/kg/injection, schedule: Q01DX Z (ip), vehicle: carboxymethylcellulose (CMC)) 96 % of control; (dose: 15.0 mg/kg/injection, schedule: Q01DX Z (sc), vehicle: saline) 120 % of control; (dose: 30.0 mg/kg/injection, schedule: Q01DX Z (ip), vehicle: carboxymethylcellulose (CMC)) 120 % of control; (dose: 60.0 mg/kg/injection, schedule: Q01DX Z (sc), vehicle: saline) 109 % of control; (dose: 62.5 mg/kg/injection, schedule: Q01DX010 (oral), vehicle: saline) 104 % of control; (dose: 88.0 mg/kg/injection, schedule: Q01DX007 (oral), vehicle: carboxymethylcellulose (CMC)) 101 % of control. Besides, the T/C runs as follows: (dose: 120.0 mg/kg/injection, schedule: Q01DX Z (ip), vehicle: carboxymethylcellulose (CMC)) 185 % of control; (dose: 120.0 mg/kg/injection, schedule: Q01DX Z (sc), vehicle: saline) 230 % of control; (dose: 125.0 mg/kg/injection, schedule: Q01DX010 (oral), vehicle: saline) 104 % of control; (dose: 175.0 mg/kg/injection, schedule: Q01DX007 (oral), vehicle: carboxymethylcellulose (CMC)) 97 % of control; (dose: 250.0 mg/kg/injection, schedule: Q01DX010 (oral), vehicle: saline) 103 % of control; (dose: 350.0 mg/kg/injection, schedule: Q01DX007 (oral), vehicle: carboxymethylcellulose (CMC)) 105 % of control. In addition, the T/C was 106 % of control (dose: 500.0 mg/kg/injection, schedule: Q01DX010 (oral), vehicle: saline) and 105 % of control (dose: 700.0 mg/kg/injection, schedule: Q01DX007 (oral), vehicle: carboxymethylcellulose (CMC)).

In the case of `CCC1(O)C2CCCC1CCC2` (stereo unspecified), the T/C was 97 % of control under setting [7]; 97 % of control under setting [2]; 94 % of control under setting [8]; 92 % of control under setting [4]; 97 % of control under setting [9]; 97 % of control under setting [6].

For the compound `Nc1cc(Cl)ccc1Cl`, the T/C is 91 % of control (dose: 100.0 mg/kg/injection, schedule: Q04DX002 (ip), vehicle: gum acacia); 95 % of control (dose: 200.0 mg/kg/injection, schedule: Q04DX002 (ip), vehicle: gum acacia); 95 % of control (dose: 400.0 mg/kg/injection, schedule: Q04DX002 (ip), vehicle: gum acacia).

As for `S=c1nc[nH]c2nc[nH]c12.[Ag]`, the T/C reads like this: (dose: 3.0 mg/kg/injection, schedule: Q01DX009 (ip), vehicle: carboxymethylcellulose (CMC)) 106 % of control and 92 % of control; (dose: 6.0 mg/kg/injection, schedule: Q01DX009 (ip), vehicle: carboxymethylcellulose (CMC)) 101 % of control; (dose: 12.0 mg/kg/injection, schedule: Q01DX009 (ip), vehicle: carboxymethylcellulose (CMC)) 113 % of control; (dose: 50.0 mg/kg/injection, schedule: Q01DX009 (ip), vehicle: carboxymethylcellulose (CMC)) 113 % of control and 119 % of control; (dose: 400.0 mg/kg/injection, schedule: Q01DX009 (ip), vehicle: carboxymethylcellulose (CMC)) 101 % of control; (dose: 600.0 mg/kg/injection, schedule: Q01DX009 (ip), vehicle: carboxymethylcellulose (CMC)) 154 % of control. Further, the T/C (dose: 800.0 mg/kg/injection, schedule: Q01DX009 (ip), vehicle: carboxymethylcellulose (CMC)) was 157 % of control and 159 % of control; the T/C (dose: 800.0 mg/kg/injection, schedule: Q01DX009 (ip), vehicle: saline) was 154 % of control; the T/C (dose: 1000.0 mg/kg/injection, schedule: Q01DX009 (ip), vehicle: carboxymethylcellulose (CMC)) is 119 % of control; the T/C (dose: 1000.0 mg/kg/injection, schedule: Q01DX009 (ip), vehicle: saline) was 154 % of control.

For `CCC(C)c1c(N)nc(N)[nH]c1=O` (stereo unspecified), the T/C was 94 % of control under setting [2], 106 % of control under setting [4] and 110 % of control under setting [6].

As for `Cc1c(Cl)cccc1NC(=O)Oc1ccccc1Cc1ccccc1`, the T/C runs as follows: (dose: 50.0 mg/kg/injection, schedule: Q01DX009 (ip), vehicle: saline with Tween-80) 96 % of control and 102 % of control; (dose: 100.0 mg/kg/injection, schedule: Q01DX001 (ip), vehicle: saline with Tween-80) 95 % of control; under setting [10], 96 % of control and 110 % of control; under setting [15], 100 % of control; (dose: 200.0 mg/kg/injection, schedule: Q01DX001 (ip), vehicle: saline with Tween-80) 105 % of control; under setting [11], 93 % of control and 92 % of control. Also, the T/C reads like this: under setting [16], 94 % of control; (dose: 400.0 mg/kg/injection, schedule: Q01DX001 (ip), vehicle: saline with Tween-80) 86 % of control; under setting [9], 97 % of control and 89 % of control; under setting [12], 89 % of control and 91 % of control; under setting [17], 86 % of control.

Consider `CC12CCC(C(C(=O)C3C(=O)C4(C)CCC3C4(C)C)C1=O)C2(C)C` (stereo unspecified), for which the T/C was 102 % of control under setting [13], 103 % of control under setting [14] and 113 % of control under setting [18].

In the case of `CS(=O)(=O)OCCCCCCOCCCCOCCCCOCCCCCCOS(C)(=O)=O`, the T/C by setting is: under setting [13], 92 % of control; under setting [14], 93 % of control; under setting [18], 93 % of control.
